Data taken from patent publication US7465544B2, “Synthetic cofactor analogs of S-adenosylmethionine as ligatable probes of biological methylation and methods for their use” (Wisconsin Alumni Research Foundation, priority 2006, dated 2008).
Counter-ions that a name gives are not always drawn.

How the values were obtained:
Format in all cases: biochemical
M.HhaI = M.HhaI (Haemophilus parahaemolyticus, UniProt P05102)
M.EcoRI = M.EcoRI (Escherichia coli, UniProt P00472)
M.TaqI [1] = biological target: T1, M.TaqI (Thermus aquaticus, UniProt P14385)
T1 sequence (P14385 whole entry): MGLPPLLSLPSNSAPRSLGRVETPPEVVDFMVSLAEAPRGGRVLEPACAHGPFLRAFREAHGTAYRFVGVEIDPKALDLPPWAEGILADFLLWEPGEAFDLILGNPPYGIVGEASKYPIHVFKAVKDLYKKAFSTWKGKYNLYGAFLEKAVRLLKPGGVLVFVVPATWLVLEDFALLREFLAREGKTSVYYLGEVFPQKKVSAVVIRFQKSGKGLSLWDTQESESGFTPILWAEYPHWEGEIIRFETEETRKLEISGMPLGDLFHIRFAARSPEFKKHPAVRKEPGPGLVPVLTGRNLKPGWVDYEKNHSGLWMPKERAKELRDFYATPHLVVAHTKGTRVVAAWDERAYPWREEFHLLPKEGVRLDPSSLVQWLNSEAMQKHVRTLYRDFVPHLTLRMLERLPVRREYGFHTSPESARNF

M.SssI = M.SssI (Spiroplasma monobiae, UniProt P15840)
Chain of M.SssI (P15840 whole entry, the tested form may be a part): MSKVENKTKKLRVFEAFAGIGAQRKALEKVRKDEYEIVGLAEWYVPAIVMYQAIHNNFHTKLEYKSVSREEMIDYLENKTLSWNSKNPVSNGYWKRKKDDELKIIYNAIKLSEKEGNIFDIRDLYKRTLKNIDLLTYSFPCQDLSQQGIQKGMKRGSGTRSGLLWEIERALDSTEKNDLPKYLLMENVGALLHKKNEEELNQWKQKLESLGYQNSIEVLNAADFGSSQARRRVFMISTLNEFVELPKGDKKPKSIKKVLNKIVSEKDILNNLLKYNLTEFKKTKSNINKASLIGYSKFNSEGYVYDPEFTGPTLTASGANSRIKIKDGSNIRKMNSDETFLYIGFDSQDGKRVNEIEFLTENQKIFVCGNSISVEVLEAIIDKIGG

M.TaqI [2] = biological target: T1, M.TaqI; experiment: Restriction/protection assay: M.TaqI-mediated alkylation of R.EcoRI-linearized pUC19; settings: for extent of DNA alkylation (protection from R.TaqI digestion) with increasing M.TaqI: 14.3 nM linearized pUC19, 20 to 200 nM M.TaqI, 65° C. 4 h; for extent of DNA alkylation (protection from R.TaqI digestion) with increasing M.TaqI / protection of DNA from R.TaqI in the absence of M.TaqI: 100 μM cofactor analog; for protection of DNA from R.TaqI in the absence of M.TaqI: no M.TaqI; for protection from R.TaqI with increasing cofactor analog concentration: 10 to 100 μM cofactor analog, 200 nM M.TaqI; for efficiency of M.TaqI dependent DNA alkylation relative to 3: linearized pUC19, disappearance of smaller restriction fragments
M.HpaII = biological target: T2, M.HpaII (Haemophilus parainfluenzae, UniProt P15446); experiment: M.HpaII-catalyzed transfer of cofactor analogs to DNA
T2 construct: purchased New England Biolabs
T2 sequence (P15446 1-358): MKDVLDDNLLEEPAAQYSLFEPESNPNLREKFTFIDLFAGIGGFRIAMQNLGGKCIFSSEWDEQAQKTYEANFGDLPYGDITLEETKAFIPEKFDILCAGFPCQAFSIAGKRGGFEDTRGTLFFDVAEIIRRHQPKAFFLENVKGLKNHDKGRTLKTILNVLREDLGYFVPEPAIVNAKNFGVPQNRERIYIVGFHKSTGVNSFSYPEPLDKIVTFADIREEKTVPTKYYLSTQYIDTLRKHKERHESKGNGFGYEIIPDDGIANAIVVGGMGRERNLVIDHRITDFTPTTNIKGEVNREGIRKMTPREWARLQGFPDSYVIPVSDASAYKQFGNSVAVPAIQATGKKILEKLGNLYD

Chain of M.HhaI (P05102 whole entry): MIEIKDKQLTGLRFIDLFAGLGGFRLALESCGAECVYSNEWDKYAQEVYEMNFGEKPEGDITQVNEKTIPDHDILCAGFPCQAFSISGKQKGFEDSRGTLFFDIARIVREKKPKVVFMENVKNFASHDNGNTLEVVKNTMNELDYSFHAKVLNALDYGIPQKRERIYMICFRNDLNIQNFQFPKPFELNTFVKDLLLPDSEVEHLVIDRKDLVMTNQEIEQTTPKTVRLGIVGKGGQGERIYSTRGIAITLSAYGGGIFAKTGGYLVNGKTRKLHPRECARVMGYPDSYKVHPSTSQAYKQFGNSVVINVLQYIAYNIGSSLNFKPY
Chain of M.EcoRI (P00472 whole entry): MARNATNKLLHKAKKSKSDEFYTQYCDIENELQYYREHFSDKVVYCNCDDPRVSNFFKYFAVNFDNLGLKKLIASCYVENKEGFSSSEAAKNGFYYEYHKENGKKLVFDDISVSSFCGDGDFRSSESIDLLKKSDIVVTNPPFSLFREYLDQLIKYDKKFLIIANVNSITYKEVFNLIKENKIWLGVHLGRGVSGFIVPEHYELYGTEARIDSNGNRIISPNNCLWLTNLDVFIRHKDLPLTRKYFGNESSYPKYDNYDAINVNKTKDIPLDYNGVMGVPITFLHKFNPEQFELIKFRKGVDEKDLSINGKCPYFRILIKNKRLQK

Row | Molecule | M.HhaI-catalyzed transfer of cofactor analog (M.HhaI) | transfer of cofactor analog to radiolabeled synthetic oligo duplex (M.EcoRI) | covalent attachment to synthetic oligonucleotide (DNA mobility shift) (M.TaqI [1]) | extent of DNA alkylation (protection from R.TaqI digestion) with increasing M.TaqI (M.TaqI [2]) | protection of DNA from R.TaqI in the absence of M.TaqI (M.TaqI [2]) | protection from R.TaqI with increasing cofactor analog concentration (M.TaqI [2]) | efficiency of M.TaqI dependent DNA alkylation relative to 3 (M.TaqI [2]) | M.HpaII-catalyzed transfer of cofactor analog (M.HpaII) | DNA alkylation at 200 nM cofactor analog (M.EcoRI) | further results
1 | [N-]=[N+]=Nc1nc2c(N)ncnc2n1[C@@H]1O[C@H](CN2CC2)C(O)[C@@H]1O (stereo partly shown) [24a, 8-azido-5′-aziridino-5′-deoxyadenosine] | catalyzed the transfer | closely parallels that observed with M.TaqI | pronounced shift of the DNA mobility | increase in the amount of DNA alkylation | no protection of the DNA | increased protection from R.TaqI | better cofactor analogs for M.TaqI than is the unsubstituted cofactor analog 3 | not able to catalyze the transfer | – | transfer to the 55-mer duplex 5 (M.HhaI): effectively catalyze the transfer; transfer to the 55-mer duplex 5 (M.TaqI [1]): effectively catalyze the transfer; M.SssI transfer of cofactor analog to its recognition sequence (M.SssI): readily transfers; efficiency of M.SssI mediated DNA alkylation, hemimethylated duplex 9 versus unmethylated duplex 8 (M.SssI): significantly more efficient for hemimethylated duplex 9
2 | [N-]=[N+]=NCCCCNc1nc2c(N)ncnc2n1[C@@H]1O[C@H](CN2CC2)[C@H](O)C1O (stereo partly shown) [24b, 8-(4″-Azido-butylamino)-5′-aziridino-5′-deoxy adenosine] | catalyzed the transfer | closely parallels that observed with M.TaqI | pronounced shift of the DNA mobility | increase in the amount of DNA alkylation | no protection of the DNA | increased protection from R.TaqI | better cofactor analogs for M.TaqI than is the unsubstituted cofactor analog 3 | not able to catalyze the transfer | – | –
3 | C#CCN(CCI)C[C@H]1O[C@@H](n2cnc3c(N)ncnc32)[C@@H](O)C1O (stereo partly shown) [compound 56, 5′-[(iodoethyl)propargyl)amino]-2′,3′-5′-deoxyadenosine hydrochloride] | – | – | – | – | – | – | – | – | not active at all | DNA-damaging activity in the presence of M.HhaI (M.HhaI): completely devoid of DNA-damaging activity; DNA alkylation activity relative to 3 (M.EcoRI): closely parallels that of 3; alkylation of duplex pre-methylated with SAM (M.EcoRI): failed to undergo reaction; DNA alkylation activity relative to 3 (M.TaqI [1]): closely parallels that of 3; alkylation of duplex pre-methylated with SAM (M.TaqI [1]): failed to undergo reaction; protection of linearized pUC19 DNA from R.TaqI digestion (M.TaqI [2]; brief treatments with M.TaqI, unpublished data): used very effectively to protect linearized pUC19 DNA from R.TaqI digestion
4 | Nc1ncnc2c1ncn2[C@@H]1O[C@H](CN(CCI)CC[C@H](N)C(=O)O)C(O)[C@@H]1O (stereo partly shown) [compound 67, 5′-(diaminobutyric acid)-N-iodoethyl-5′-deoxyadenosine ammonium hydrochloride] | – | – | – | – | – | – | – | – | significant amount of slow mobility DNA | alkylation of duplex bearing 5-MeC for C substitution at the target base (M.HhaI): failed to undergo alkylation; lowest concentration at which cofactor analog is active (M.EcoRI): ≤ 40 nM; alkylation of duplex bearing 5-MeC for C substitution at the target base (M.SssI): failed to undergo alkylation
5 | 5′-aziridine adenylate [compound 3, reference compound] | – | clearly capable of transferring | pronounced shift of the DNA mobility | increase in the amount of DNA alkylation | no protection of the DNA | increased protection from R.TaqI | – | compatible | – | –
